# Tests used:
# FXa = experiment: Ecotin·FXa dissociation rate constant (HLE trap); format: biochemical, human; conditions: calculated from (Ki)·(kon)
# Method: Determination of FXa dissociation rate constant The dissociation rate constant of the ecotin.cndot.FXa complex was measured using HLE to trap the free ecotin released from the complex. FXa (10 μM) was incubated for 1 h in TNCT buffer in the presence and absence of ecotin (12.5 μM) and diluted 1000-fold into TNCT buffer with and without HLE (500 nM). Aliquots (180 μl ) were removed at various times and initial rates of free FXa were measured at 405 nm with 20 μl of 5 mM Spectrozyme fXa. The product curve (free FXa versus time) was fit to equation 6; the value for koff was determined by nonlinear regression analysis.
# To measure the dissociation rate constant of ecotin from FXa, the complex was diluted 1000-fold into buffer containing a 50-fold excess of HLE to trap the free ecotin and prevent reassociation. In the absence of HLE, reassociation of ecotin with FXa was so rapid that free FXa was barely detectible (FIG. 4B). Progress of dissociation was monitored as the increase in hydrolysis rate of Spectrozyme fXa resulting from the increasing free FXa with time. Because HLE prevented reassociation the rate of dissociation of the E·I complex is given by equation (5): [formula] which upon integration gives equation (6): […]
# where [E] is the free [FXa] at any time t, [E.cndot.I]0 is the concentration of the complex at time zero, and koff is the first order dissociation rate constant. The time dependent E·I complex dissociation curve fit to equation (6) by nonlinear regression analysis is shown in FIG. 4B; the dissociation rate constant for ecotin tested is shown above in Table I.
# human FXa = experiment: Equilibrium inhibition constant with Factor Xa (tight-binding analysis); format: biochemical; conditions: compared with wild type
# Method: Determination of Equilibrium Inhibition Constants Apparent Ki values (Ki *) for the inhibition of the enzymes tested by ecotin and mutants were measured as follows. All reactions were performed at 25° C. Stock solutions of trypsin were quantitated by active site burst titration with MUGB as previously described (Jameson, G. W. et al., Biochem. J. 131:107-117 [1973]) using a Fluoroskan II plate reader at excitation wavelength of 355 nm and emission wavelength of 460 nm. Data was collected on a Macintosh SE20 using either Delta Soft II Fl v3.31 software (BioMetallics). Active site titrated trypsin was then used to quantitate ecotin active sites using BAPA as the substrate; a stoichiometry of 1:1 was assumed (Chung, C. H. et al., supra). Factor Xa, Factor XIIa, plasma kallikrein, or HLE were then quantitated by active site titration using ecotin as a standard, again assuming 1:1 stoichiometry. In addition, the concentration of HLE was quantitated by methods previously described using a calibrated stock of α1 -proteinase inhibitor to titrate the HLE active sites (Beatty, K. et al., J. Biol. Chem. 255:3931-3934 [1980]); the same HLE active site concentration was determined using both ecotin and α1 -proteinase inhibitor. The substate for FXa was Spectrozyme fXa (0.5 mM); the substrate for FXIIa (0.5 mM) and plasma kallikrein was S2302 (0.5 mM); the substrate for HLE was MeOSuc-Ala-Ala-Pro-Val-pNA (0.4 mM). There was good agreement upon comparison of the protein concentrations determined by amino acid analysis, Bradford analysis (Bradford, M. M. Anal. Biochem. 72:248-254 (1976) or active site titrations for trypsin, ecotin, FXa, FXIIa, plasma kallikrein, and HLE.
# Therefore, apparent equilibrium dissociation values (Ki *) were determined using methods derived for tight-binding inhibitors (Morrison, J. F. Biochim. Biophys. Acta 185:269-286 [1969]), (Bieth, J. in Proteinase Inhibitors (Fritz, H., Tschesche, H., Greene, L. J. and Truscheit, E., Ed.) pp 463-469, Springer-Verlag, New York [1974]). Data were fit by nonlinear regression analysis to equation 1 and values for Ki * were determined. [formula] where α is the fractional activity (steady-state inhibited rate divided by the uninhibited rate), [Eo ] is the total enzyme concentration, and [Io ] is the total ecotin concentration. Since the inhibitor and substrate compete for the same site, the true Ki value is related to Ki^* by the expression Ki =Ki */(1+[S]/Km), where Km is the Michaelis constant for the substrate, and [S] is the substrate concentration.
# a. […] Following a 1 hour incubation at room temperature to reach equilibration of the enzyme.cndot.inhibitor complex, 20 μl of 5 mM Spectrozyme fXa was added, and the steady-state rate of product formation measured by monitoring the change in absorbance at 405 nm. The Km for Spectrozyme fXa with FXa under these conditions was determined to be 0.23 mM by linear regression analysis of Lineweaver-Burke plots.
# HLE = conditions: relative to α1-proteinase inhibitor with P1 Met, literature; cited from earlier work
Substance,koff (values in parenthesis) (FXa) [s⁻¹],"inhibition of FXa, in words (human FXa)",decreased inhibition towards HLE (HLE)
M84A,0.00066,,
M84D,,significant inhibition,
M84E,0.00057,significant inhibition,
α1-Proteinase inhibitor (Pittsburgh): naturally occuring mutant of the serpin α1-proteinase inhibitor which has Arg in the P1 position instead of Met,,,"10,000 fold"
